One may read the Kd as a measure of binding affinity in units of concentration. Higher therefore signals weaker binding.

Starred links: 1 amine or outer side, 2 acyl side, 3 side chain; linkers in the order of their positions; H or OH if unused. Positions of bridges follow the written chain, without caps; N, C: chain ends. Non-standard residues stand in square brackets, D forms with d. Residues, ends and D or L forms follow the SMILES beside them. *: point of attachment. Ala(piperidin-4-yl) = O=C([C@H](CC1CCN([*:3])CC1)N[*:1])[*:2]; Phe(3-CH2NH2) = O=C([C@H](Cc1cccc(CN[*:3])c1)N[*:1])[*:2]; DOTA = O=C(O)CN1CCN(CC(=O)O)CCN(CC(=O)*)CCN(CC(=O)O)CC1; Butanoyl(4-(4-I-phenyl)) = O=C(CCCc1ccc(I)cc1)*; Phe(4-COOH) = N[C@@H](Cc1ccc(C(=O)O)cc1)C(=O)O; Trp(5-F) = N[C@@H](Cc1c[nH]c2ccc(F)cc12)C(=O)O; PEG8 = NCCOCCOCCOCCOCCOCCOCCOCCOCCC(=O)O; Ala(4-THP) = N[C@@H](CC1CCOCC1)C(=O)O; Val(3-OH) = CC(C)(O)[C@H](N)C(=O)O; Tle = CC(C)(C)[C@H](N)C(=O)O; hLeu = CC(C)CC[C@H](N)C(=O)O; Nle = CCCC[C@H](N)C(=O)O; AEA = NCCOCC(=O)O; NEtG = CCNCC(=O)O

This is an account of results in patent US20250296959A1, “B7-H3 TARGETING PEPTIDES AND CONSTRUCTS THEREOF” (Mariana Oncology Inc., priority 2024, published 2025).

The assay has as its target T1, human 4lg B7-H3 (Homo sapiens, UniProt Q5ZPR3).
T1 sequence (Q5ZPR3 29-534): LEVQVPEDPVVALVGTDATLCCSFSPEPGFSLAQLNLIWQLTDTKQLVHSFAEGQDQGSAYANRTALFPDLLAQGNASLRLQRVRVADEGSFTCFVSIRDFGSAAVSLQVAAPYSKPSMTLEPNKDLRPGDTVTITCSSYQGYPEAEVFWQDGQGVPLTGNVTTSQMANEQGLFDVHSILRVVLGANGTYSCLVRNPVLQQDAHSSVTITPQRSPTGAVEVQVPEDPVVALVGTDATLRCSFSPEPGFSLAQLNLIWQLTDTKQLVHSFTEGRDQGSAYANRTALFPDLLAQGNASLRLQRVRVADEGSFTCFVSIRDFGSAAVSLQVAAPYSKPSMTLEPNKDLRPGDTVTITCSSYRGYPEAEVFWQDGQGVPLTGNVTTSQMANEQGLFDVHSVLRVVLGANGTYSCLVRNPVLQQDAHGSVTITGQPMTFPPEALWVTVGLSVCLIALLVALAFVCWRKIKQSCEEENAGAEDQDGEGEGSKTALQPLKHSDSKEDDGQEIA
Description: Affinity determination by surface plasmon resonance (SPR) to 4Ig B7-H3. Conditions: 4Ig B7-H3.

Setting [1] is: SPR KD—37° C., 37° C. flow cell temperature.
[2] abbreviates: SPR KD—25° C., 25° C. flow cell temperature.

For `CC(C)CC[C@H](NC(=O)CCOCCOCCOCCOCCOCCOCCOCCOCCNC(=O)CCCc1ccc(I)cc1)C(=O)N[C@@H](Cc1ccc(O)cc1)C(=O)N[C@H]1CSSC[C@@H](C(=O)N[C@@H](Cc2c[nH]c3ccc(F)cc23)C(=O)N[C@@H](Cc2ccccc2)C(=O)N[C@H](C(=O)N[C@H](CCCCNC(=O)CN2CCN(CC(=O)O)CCN(CC(=O)O)CCN(CC(=O)O)CC2)C(=O)O)C(C)(C)O)NC(=O)[C@H](Cc2ccc(O)cc2)NC(=O)[C@H](C(C)C)NC(=O)[C@H](CC(=O)O)NC(=O)[C@H](CC2CCOCC2)NC(=O)[C@H](CCCCN)NC(=O)CNC(=O)[C@H](C(C)(C)C)NC1=O` [compound 365, AB-PEG8-hLeu-Y-C-Tbg-G-K-ThpA-D-V-Y-C-5FW-F-hydroxyVal-dLys(DOTA)-COOH] ({Butanoyl(4-(4-I-phenyl))-PEG8}-[hLeu]YC[Tle]GK[Ala(4-THP)]DVYC[Trp(5-F)]F[Val(3-OH)][dK](DOTA)-OH; disulfide 3-11), the Kd under setting [1] lay within 10 to 100 nM.

`CC(=O)N[C@@H](CCC(C)C)C(=O)N[C@@H](Cc1ccc(O)cc1)C(=O)N[C@H]1CSSC[C@@H](C(=O)N[C@@H](Cc2c[nH]c3ccc(F)cc23)C(=O)N[C@@H](Cc2ccccc2)C(=O)N[C@H](C(=O)O)[C@@H](C)O)NC(=O)[C@H](Cc2ccc(O)cc2)NC(=O)[C@H](C(C)C)NC(=O)[C@H](CC(=O)O)NC(=O)[C@H](CC2CCOCC2)NC(=O)[C@H](CCCCNC(=O)CN2CCN(CC(=O)O)CCN(CC(=O)O)CCN(CC(=O)O)CC2)NC(=O)CNC(=O)[C@H](C(C)(C)C)NC1=O` [compound 328, Ac-hLeu-Y-C-Tbg-G-Lys(DOTA)-ThpA-D-V-Y-C-5FW-F-Thr-COOH] (Ac-[hLeu]YC[Tle]GK(DOTA)[Ala(4-THP)]DVYC[Trp(5-F)]FT-OH; disulfide 3-11) had a Kd under setting [1] of 10 to 100 nM.

As for `CC(=O)N[C@@H](CCC(C)C)C(=O)N[C@@H](Cc1ccc(O)cc1)C(=O)N[C@H]1CSSC[C@@H](C(=O)N[C@@H](Cc2c[nH]c3ccc(F)cc23)C(=O)N[C@@H](Cc2ccccc2)C(=O)N2CCC[C@H]2C(=O)N[C@H](CCCCNC(=O)CN2CCN(CC(=O)O)CCN(CC(=O)O)CCN(CC(=O)O)CC2)C(=O)O)NC(=O)[C@H](Cc2ccc(O)cc2)NC(=O)[C@H](C(C)C)NC(=O)[C@H](CC(=O)O)NC(=O)[C@H](Cc2ccc(C(=O)O)cc2)NC(=O)[C@H](CC2CCNCC2)NC(=O)CNC(=O)[C@H](C(C)C)NC1=O` [compound 313, Ac-hLeu-Y-C-V-G-PipAla-4COOHPhe-D-V-Y-C-5FW-F-Pro-dLys(DOTA)-COOH] (Ac-[hLeu]YCVG[Ala(piperidin-4-yl)][Phe(4-COOH)]DVYC[Trp(5-F)]FP[dK](DOTA)-OH; disulfide 3-11), the Kd under setting [1] is less than 1 nM.

The compound `CC(C)CC[C@H](NC(=O)COCCNC(=O)[C@H](CCC(=O)O)NC(=O)CN1CCN(CC(=O)O)CCN(CC(=O)O)CCN(CC(=O)O)CC1)C(=O)N[C@@H](Cc1ccc(O)cc1)C(=O)N[C@H]1CSSC[C@@H](C(=O)N[C@@H](Cc2c[nH]c3ccc(F)cc23)C(=O)N[C@@H](Cc2ccccc2)C(=O)N[C@H](C(N)=O)C(C)(C)O)NC(=O)[C@H](Cc2ccc(O)cc2)NC(=O)[C@H](C(C)C)NC(=O)[C@H](CC(=O)O)NC(=O)[C@H](CC2CCOCC2)NC(=O)[C@H](CCCCN)NC(=O)CNC(=O)[C@H](C(C)(C)C)NC1=O` [compound 392, DOTA-Glu-AEA-hLeu-Y-C-Tbg-G-K-ThpA-D-V-Y-C-5FW-F-hydroxyVal-CONH2] ({DOTA}-E[AEA][hLeu]YC[Tle]GK[Ala(4-THP)]DVYC[Trp(5-F)]F[Val(3-OH)]-NH2; disulfide 5-13) had a Kd under setting [1] of 1 to 10 nM.

Consider `CC(=O)N[C@@H](CCC(C)C)C(=O)N[C@@H](Cc1ccc(O)cc1)C(=O)N[C@H]1CSSC[C@@H](C(=O)N[C@@H](Cc2c[nH]c3ccc(F)cc23)C(=O)N[C@@H](Cc2ccccc2)C(=O)N2CCC[C@H]2C(=O)N[C@H](CCCCNC(=O)CN2CCN(CC(=O)O)CCN(CC(=O)O)CCN(CC(=O)O)CC2)C(N)=O)NC(=O)[C@H](Cc2ccc(O)cc2)NC(=O)[C@H](C(C)C)NC(=O)[C@H](CC(=O)O)NC(=O)[C@H](Cc2ccc(O)cc2)NC(=O)[C@H](CCCCN)NC(=O)CNC(=O)[C@H](C(C)(C)C)NC1=O` [compound 248, Ac-hLeu-Y-C-Tbg-G-K-Y-D-V-Y-C-5FW-F-Pro-dLys(DOTA)-CONH2] (Ac-[hLeu]YC[Tle]GKYDVYC[Trp(5-F)]FP[dK](DOTA)-NH2; disulfide 3-11), for which the Kd under setting [2] lay in the range of 1 to 10 nM.

On to `COc1ccc(C[C@H](NC(=O)[C@H](CCC(C)C)NC(C)=O)C(=O)N[C@H]2CSSC[C@@H](C(=O)N[C@@H](Cc3c[nH]c4ccc(F)cc34)C(=O)N[C@@H](Cc3ccccc3)C(=O)N[C@H](C(=O)N[C@H](CCCCNC(=O)CN3CCN(CC(=O)O)CCN(CC(=O)O)CCN(CC(=O)O)CC3)C(N)=O)[C@@H](C)O)NC(=O)[C@H](Cc3ccc(O)cc3)NC(=O)[C@H](C(C)C)NC(=O)[C@H](CC(=O)O)NC(=O)[C@H](Cc3ccc(O)cc3)NC(=O)[C@H](CCCCN)NC(=O)CNC(=O)[C@H](C(C)C)NC2=O)cc1` [compound 193, Ac-hLeu-OMeTyr-C-V-G-K-Y-D-V-Y-C-5FW-F-Thr-dLys(DOTA)-CONH2] (Ac-[hLeu]Y(Me)CVGKYDVYC[Trp(5-F)]FT[dK](DOTA)-NH2; disulfide 3-11), for which the Kd under setting [2] was 10 to 100 nM.

`CC(=O)N[C@@H](CCC(C)C)C(=O)N[C@@H](Cc1ccc(O)cc1)C(=O)N[C@H]1CSSC[C@@H](C(=O)N[C@@H](Cc2c[nH]c3ccc(F)cc23)C(=O)N[C@@H](Cc2ccccc2)C(=O)N2CCC[C@H]2C(=O)O)NC(=O)[C@H](Cc2ccc(O)cc2)NC(=O)[C@H](C(C)C)NC(=O)[C@H](CC(=O)O)NC(=O)[C@H](Cc2cccc(CNC(=O)CN3CCN(CC(=O)O)CCN(CC(=O)O)CCN(CC(=O)O)CC3)c2)NC(=O)[C@H](CCCCN)NC(=O)CNC(=O)[C@H](C(C)C)NC1=O` [compound 262, Ac-hLeu-Y-C-V-G-K-MAF(DOTA)-D-V-Y-C-5FW-F-Pro-COOH] (Ac-[hLeu]YCVGK[Phe(3-CH2NH2)](DOTA)DVYC[Trp(5-F)]FP-OH; disulfide 3-11) returned a Kd under setting [2] of 10 to 100 nM.

In turn, `CCCC[C@H](NC(C)=O)C(=O)N[C@@H](Cc1ccc(O)cc1)C(=O)N[C@H]1CSSC[C@@H](C(=O)N[C@@H](Cc2c[nH]c3ccccc23)C(=O)N[C@@H](Cc2ccccc2)C(N)=O)NC(=O)[C@H](Cc2ccc(O)cc2)NC(=O)[C@H](C(C)C)NC(=O)[C@H](CC(=O)O)NC(=O)[C@H](Cc2ccc(O)cc2)NC(=O)[C@H](CCCCN)NC(=O)CN(CC)C(=O)[C@H](C(C)C)NC1=O` [compound 52, Ac-Nle-Y-C-V-NetGly-K-Y-D-V-Y-C-W-F-CONH2] (Ac-[Nle]YCV[NEtG]KYDVYCWF-NH2; disulfide 3-11) gave a Kd under setting [2] of 10 to 100 nM.

The compound `CC(=O)N[C@@H](CCC(C)C)C(=O)N[C@@H](Cc1ccc(O)cc1)C(=O)N[C@H]1CSSC[C@@H](C(=O)N[C@@H](Cc2c[nH]c3ccc(F)cc23)C(=O)N[C@@H](Cc2ccccc2)C(=O)N2CCC[C@H]2C(N)=O)NC(=O)[C@H](Cc2ccc(O)cc2)NC(=O)[C@H](C(C)C)NC(=O)[C@H](CC(=O)O)NC(=O)[C@H](CC2CCOCC2)NC(=O)[C@H](CCCCNC(=O)CN2CCN(CC(=O)O)CCN(CC(=O)O)CCN(CC(=O)O)CC2)NC(=O)CNC(=O)[C@H](C(C)(C)C)NC1=O` [compound 273, Ac-hLeu-Y-C-Tbg-G-Lys(DOTA)-ThpA-D-V-Y-C-5FW-F-Pro-CONH2] (Ac-[hLeu]YC[Tle]GK(DOTA)[Ala(4-THP)]DVYC[Trp(5-F)]FP-NH2; disulfide 3-11) came in with a Kd under setting [2] of 10 to 100 nM.
